In article PMC7580722, “Design of new disubstituted imidazo[1,2-b]pyridazine derivatives as selective Haspin inhibitors. Synthesis, binding mode and anticancer biological evaluation” (Journal of Enzyme Inhibition and Medicinal Chemistry, 2020):
Like-named read-outs stand apart in the source and are kept apart here. One block for each compound: values may come before it.

Assays:
[1] = target: T1, HsCDK1 (Homo sapiens, UniProt P06493); test: CDK1 kinase assay; assay type: biochemical; conditions: for SI CDK1/Haspin: SI = IC50 CDK1/IC50 Haspin; for IC50: Table 4, read-out: IC50 HsCDK1
T1 construct: purchased ProQinase
T1 sequence (P06493 whole entry): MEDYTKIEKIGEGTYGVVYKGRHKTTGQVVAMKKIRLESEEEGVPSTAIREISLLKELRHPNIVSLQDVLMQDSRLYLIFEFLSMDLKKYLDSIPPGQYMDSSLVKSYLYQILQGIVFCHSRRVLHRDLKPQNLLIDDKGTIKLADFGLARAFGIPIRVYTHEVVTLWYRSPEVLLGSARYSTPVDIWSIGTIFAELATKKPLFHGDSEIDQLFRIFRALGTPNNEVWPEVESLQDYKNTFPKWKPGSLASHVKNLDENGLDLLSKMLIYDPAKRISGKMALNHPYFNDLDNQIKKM
T1 sequence (P14635 whole entry partner): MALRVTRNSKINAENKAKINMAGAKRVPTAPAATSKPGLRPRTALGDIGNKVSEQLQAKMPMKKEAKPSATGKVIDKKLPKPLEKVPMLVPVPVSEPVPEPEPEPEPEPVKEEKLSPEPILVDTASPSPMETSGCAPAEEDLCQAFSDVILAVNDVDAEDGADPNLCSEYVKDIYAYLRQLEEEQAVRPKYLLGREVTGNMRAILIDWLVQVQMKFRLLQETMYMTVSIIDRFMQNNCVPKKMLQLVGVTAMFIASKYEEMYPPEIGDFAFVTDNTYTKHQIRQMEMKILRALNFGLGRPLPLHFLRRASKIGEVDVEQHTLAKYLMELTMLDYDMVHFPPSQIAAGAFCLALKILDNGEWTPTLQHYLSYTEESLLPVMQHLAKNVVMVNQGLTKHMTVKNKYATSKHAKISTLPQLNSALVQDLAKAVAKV
Method: We therefore tested our compounds on two obvious candidates, HsCDK1 and HsPLK1 (Polo-like_kinase 1) both required for mitotic entry[50]
(§1) Values are IC50 expressed in µM and calculated from dose–response curves (each point from the curves was performed in duplicate). NR: not relevant. […]
(§2) Recombinant protein kinases were expressed and purified from E. coli (HsHaspin kinase domain aa470-798, HsCdk5/p25, RnDYRK1A kinase domain aa1-499, HsPIM1, MmCLK1) or baculovirus/Sf9 cells (HsCdk2/Cyclin A, HsCdk9/Cyclin T). Native SscCK1δ /ε and SscGSK3α/β were purified from pig brain whereas HsPlk1, HsCdk1 and HsAurora B were purchased from ProQinase and SignalChem respectively. Kinase assays were performed in specific buffers and substrates for each kinase tested in the presence of 15 µM [γ-33P] ATP (3,000 Ci/mmol, 10 mCi/ml; PerkinElmer) in a final volume of 30 µl as previously reported 51. After 30 min incubation at 30°C, the reaction mix was spotted onto GE healthcare P81 phosphocellulose paper using a FilterMate Harvester (PerkinElmer), and the filter was extensively washed with a 1% phosphoric acid solution. The wet filter-bound radioactivity was determined in the presence of 20 µl scintillation fluid (GE healthcare) with a TopCount® Scintillation and Luminescence Counter (PerkinElmer). IC50 values were calculated from dose-response curves

[2] = target: T2, HsHaspin (Homo sapiens, UniProt Q8TF76); test: Recombinant Haspin kinase assay ([γ-33P]ATP, 15 µM ATP; some values ADP-Glo); assay type: biochemical; conditions: for IC50 / Haspin inhibitory activity (in words): recombinant HsHaspin; for IC50: in vitro
T2 construct: aa470-798; made in house; host or cells: E. coli
T2 sequence (Q8TF76 470-798): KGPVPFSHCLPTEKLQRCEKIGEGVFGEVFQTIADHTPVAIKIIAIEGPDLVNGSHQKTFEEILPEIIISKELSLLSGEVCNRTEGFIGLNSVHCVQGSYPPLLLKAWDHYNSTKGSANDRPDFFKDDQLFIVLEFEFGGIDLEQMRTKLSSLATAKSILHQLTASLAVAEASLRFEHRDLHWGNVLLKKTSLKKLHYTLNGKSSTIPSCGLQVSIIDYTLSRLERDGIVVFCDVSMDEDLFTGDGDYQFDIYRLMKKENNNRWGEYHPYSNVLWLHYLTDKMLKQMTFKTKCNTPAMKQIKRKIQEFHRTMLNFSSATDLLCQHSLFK
Method: (§3) Values are IC50 expressed in µM and calculated from dose–response curves (each point on the curves was performed in triplicate). Selectivity indexes (SI; in brackets) are calculated as follows: SI = IC50 kinase X/IC50 Haspin. ND: not determined. *IC50 values obtained using the ADP-Glo methodology (see Experimental section, Supplementary Material). […]
(§4) A, HsCdk9/Cyclin T). Native SscCK1δ /ε and SscGSK3α/β were purified from pig brain whereas HsPlk1, HsCdk1 and HsAurora B were purchased from ProQinase and SignalChem respectively. Kinase assays were performed in […]
(§5) mCi/ml; PerkinElmer) in a final volume of 30 µl as previously reported 51. After 30 min incubation at 30°C, the reaction mix was spotted onto GE healthcare P81 phosphocellulose paper using a FilterMate Harvester (PerkinElmer), and the filter was extensively washed with a 1% phosphoric acid solution. The wet filter-bound radioactivity was determined in the presence of 20 µl scintillation fluid (GE healthcare) with a TopCount® Scintillation and Luminescence Counter (PerkinElmer). IC50 values were calculated from dose-response curves […]
(§6) Kinase activities using the ADP-Glo methodology (ADP-Glo Kinase Assay; Promega) were assayed according to the assay described in Nguyen et al. 52 and Ibrahim et al. 53. […]

[3] = test system: SH-SY5Y; test: Cell viability, monolayer (2D), MTS assay; assay type: cell-based; conditions: Homo sapiens, 48 h
[4] = test system: U-2 OS; test: Cell viability, monolayer (2D), MTS assay; assay type: cell-based; conditions: Homo sapiens, U2OS, 48 h
[5] = test system: HCT116; test: Cell viability, monolayer (2D), MTS assay; assay type: cell-based; conditions: Homo sapiens, HCT-116, 48 h
[6] = target: T3, HsCdk2/Cyclin A (Homo sapiens, UniProt P24941); test: CDK2 kinase assay; assay type: biochemical; conditions: read-out: IC50 CDK2
T3 construct: made in house; host or cells: baculovirus/Sf9 cells
Method: as §3, §4, §5, §6

[7] = target: T4, HsPLK1 (Homo sapiens, UniProt P53350); test: PLK1 kinase assay; assay type: biochemical; conditions: Table 4
T4 construct: purchased ProQinase
T4 sequence (P53350 whole entry): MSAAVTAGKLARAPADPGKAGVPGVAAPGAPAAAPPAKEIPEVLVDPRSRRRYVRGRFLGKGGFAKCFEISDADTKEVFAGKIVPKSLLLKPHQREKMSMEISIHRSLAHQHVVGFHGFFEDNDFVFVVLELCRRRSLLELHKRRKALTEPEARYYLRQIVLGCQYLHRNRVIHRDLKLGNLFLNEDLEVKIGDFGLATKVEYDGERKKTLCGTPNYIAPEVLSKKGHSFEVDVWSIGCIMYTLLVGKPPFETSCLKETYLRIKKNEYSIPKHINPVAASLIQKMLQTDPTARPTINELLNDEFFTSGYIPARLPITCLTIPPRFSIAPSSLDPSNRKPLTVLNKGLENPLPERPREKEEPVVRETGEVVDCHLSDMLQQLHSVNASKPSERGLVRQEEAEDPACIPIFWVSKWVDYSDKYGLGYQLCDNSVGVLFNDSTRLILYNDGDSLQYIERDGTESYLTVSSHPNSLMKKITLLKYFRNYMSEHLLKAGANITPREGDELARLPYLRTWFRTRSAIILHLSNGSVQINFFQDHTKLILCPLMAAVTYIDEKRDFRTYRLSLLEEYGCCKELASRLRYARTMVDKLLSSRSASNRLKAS
Method: . We therefore tested our compounds on two obvious candidates, HsCDK1 and HsPLK1 (Polo-like_kinase 1) both required for mitotic entry[50] (Table 4).
as §1, §2

[8] = test system: U-2 OS cells; test: Scratch wound cell migration assay (IncuCyte); assay type: cell-based, human; conditions: 0.6 µM, 0.5% FBS, normalised against DMSO control (100%)
[9] = test system: RPE-1; test: Cell viability, monolayer (2D), MTS assay; assay type: cell-based; conditions: Homo sapiens, 48 h
[10] = test system: Haspin activity (H3T3ph) in U-2 OS cells; test: In-cell Haspin activity, H3T3ph immunofluorescence; assay type: cell-based, human; conditions: 24 h; for H3T3ph signal remaining in prometaphase cells (% of ctrl): 0.5 µM
[11] = test system: U-2 OS spheroids; test: Spheroid (3D) viability, CellTiter-Glo; assay type: cell-based, human; conditions: 5 µM; for viability at 5 µM: Homo sapiens, U2OS
[12] = test system: HBL100; test: Cell viability, monolayer (2D), MTS assay; assay type: cell-based; conditions: Homo sapiens, HBL-100, 48 h
[13] = test system: Haspin; parameters: method as in PMID 23071153, PMID 23071152, PMID 21804608, PMID 19734450, PMID 18978305; conditions: Figure 1, known Haspin inhibitors; cited from earlier work
[14] = target: T5, HsAurora B (Homo sapiens, UniProt Q96GD4); test: Aurora B kinase assay; assay type: biochemical
T5 construct: purchased SignalChem
T5 sequence (Q96GD4 whole entry): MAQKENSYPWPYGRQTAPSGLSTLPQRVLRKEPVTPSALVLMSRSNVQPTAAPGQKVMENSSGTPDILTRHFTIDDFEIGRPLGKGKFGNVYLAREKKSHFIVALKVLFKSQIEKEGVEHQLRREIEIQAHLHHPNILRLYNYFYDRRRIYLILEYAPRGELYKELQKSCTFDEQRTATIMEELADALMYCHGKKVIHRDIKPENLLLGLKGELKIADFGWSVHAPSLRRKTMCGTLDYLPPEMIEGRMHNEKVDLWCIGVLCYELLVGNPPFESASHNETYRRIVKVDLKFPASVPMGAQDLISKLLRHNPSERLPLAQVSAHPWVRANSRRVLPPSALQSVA
Method: as §3
as §2, with “curves […]” for “curves”
as §6

[15] = test system: HBL100 spheroids; test: Spheroid (3D) viability, CellTiter-Glo; assay type: cell-based, human; conditions: Figure 4(A)
[16] = test system: HCT116 spheroids; test: Spheroid (3D) viability, CellTiter-Glo; assay type: cell-based, human; conditions: 5 µM, 10 days, Figure 4(A)
[17] = test system: U-2 OS cells; test: Cell cycle analysis by flow cytometry (propidium iodide); conditions: 2.5 µM, 24 h, U-2 OS

SI CDK1/Haspin [1]: 239
IC50 [1]: 2870 nM
IC50 [2]: 12 nM
EC50 [3]: > 10000 nM
EC50 [5]: > 10000 nM
IC50 [6]: 5300 nM
IC50 [7]: > 10000 nM
Compound: c1cc2[nH]ncc2cc1-c1cnc2ccc(OC[C@H]3CNCCO3)nn12 [Compound 22]
EC50 [4]: 8600 nM
normalised wound closure after 24 h [8]: around 100%
EC50 [9]: 6000 nM
H3T3ph signal remaining in prometaphase cells (% of ctrl) [10]: 10.7%
inhibition at 0.05 µM ([10]; Homo sapiens, U2OS, 0.05 µM, read-out: inhibition of cellular Haspin activity): > 80%
U-2 OS spheroid remaining viability ([11]; 2 days, Figure 4(B)): no effects
EC50 [12]: > 10000 nM

Haspin inhibitory activity (in words) [2]: very active
Compound: c1cc2[nH]ncc2cc1-c1cnc2ccc(OCC3CCCN3)nn12 (stereo not shown) [Compound 25]

melting point: 240 to 242 °C
Compound: c1cc2[nH]ncc2cc1-c1cnc2ccc(NC3CCCCC3)nn12 [Compound 10]

IC50 [1]: > 10000 nM
EC50 [3]: > 10000 nM
EC50 [5]: > 10000 nM
IC50 [7]: > 10000 nM
Compound: CCCNc1ccc2ncc(-c3cccc4ccccc34)n2n1 [Compound 29, 3-(Naphthalen-1-yl)-N-propylimidazo[1,2-b]pyridazin-6-amine]
EC50 [4]: > 10000 nM
normalised wound closure after 24 h [8]: around 100%
EC50 [9]: > 10000 nM
EC50 [12]: > 10000 nM

Aurora B inhibition at 10 µM (in words) [14]: did not affect this enzyme at 10 µM
Haspin inhibitory activity (in words) [2]: lost their activity for Haspin
Compound: c1cnn2c(-c3ccc4[nH]ncc4c3)cnc2c1 [Compound 30, 3-(1H-Indazol-5-yl)imidazo[1,2-b]pyridazine]

melting point: 231 to 233 °C
Compound: c1cc2[nH]ncc2cc1-c1cnc2ccc(N3CCCCC3)nn12 [Compound 11]

IC50 [2]: 31 nM
melting point: 195 to 197 °C
Compound: c1cc2[nH]ncc2cc1-c1cnc2ccc(NC3CCCC3)nn12 [Compound 9]

Haspin inhibitory activity (in words) [2]: very active
Compound: c1cc2[nH]ncc2cc1-c1cnc2ccc(OCC3CCCN3)nn12 (stereo not shown) [Compound 26]

IC50 [2]: 20 nM
Compound: c1cc2[nH]ncc2cc1-c1cnc2ccc(OC[C@H]3COCCN3)nn12 [Compound 24]

Compound: COc1ccc2c(c1)[nH]c1c(C)nccc12 [Harmine]
IC50 [13]: 590 nM

Compound: CN1CCC(CNc2ccc3ncc(-c4cccc(OC(F)(F)F)c4)n3n2)CC1 [SGI-1776]
IC50 [13]: 34 nM

Aurora B inhibition (in words) [14]: did not inhibit Aurora B kinase
SI CDK1/Haspin [1]: 11.5
IC50 [1]: 795 nM
average SI ([2]; average selectivity index over the protein kinases tested vs Haspin): 23.6
IC50 [2]: 69 nM
melting point: 205 to 207 °C
EC50 [3]: > 10000 nM
EC50 [5]: 1700 nM
IC50 [7]: > 10000 nM
Compound: CCOc1ccc2ncc(-c3ccc4[nH]ncc4c3)n2n1 [Compound 14]
HBL100 spheroid viability ([15]; 5 µM, 10 days): remained mostly unresponsive
viability at 5 µM ([15]; Homo sapiens, HBL-100, 48 h, read-out: HBL-100 spheroid viability (% of DMSO control)): 73%
HCT116 spheroid viability [16]: remained mostly unresponsive
EC50 [4]: 2800 nM
cells in G2/M phase (% of cell total population) ([17]; DMSO control 12.8%): 24.4%
cells in S phase (% of cell total population) ([17]; DMSO control 51.9%): 45.2%
normalised wound closure after 24 h [8]: 73%
EC50 [9]: 3700 nM
H3T3ph signal remaining in prometaphase cells (% of ctrl) [10]: 11.9%
viability at 5 µM ([11]; 48 h, 2 days, Figure 4(B), read-out: U-2 OS spheroid remaining viability): 6.9%
viability at 5 µM ([11]; 240 h, 10 days, Figure 4(A), read-out: U-2 OS spheroid viability (% of DMSO control)): 5%
viability at 5 µM ([11]; 48 h, Figure 4(A), read-out: U-2 OS spheroid viability (% of DMSO control)): 33%
EC50 [12]: 9500 nM

Aurora B inhibition at 10 µM (in words) [14]: did not affect this enzyme at 10 µM
Compound: CCCNc1ccc2ncc(-c3cnc(N)nc3)n2n1 [Compound 28, 3-(2-Aminopyrimidin-5-yl)-6-(propylamino)imidazo[1,2-b]pyridazine]

Compound: COc1ccc2c3ccnc(C(F)(F)F)c3n(CCCCN)c2c1 [LDN-211898]
IC50 [13]: 100 nM

melting point: 198 to 200 °C
Compound: CCCOc1ccc2ncc(-c3ccc4[nH]ncc4c3)n2n1 [Compound 13]

IC50 [2]: 25 nM
Compound: c1cc2[nH]ncc2cc1-c1cnc2ccc(OC[C@@H]3COCCN3)nn12 [Compound 23]
